In patent US6960611B2, “Sulfonyl-containing 2,3-diarylindole compounds, methods for making same, and methods of use thereof” (Institute of Materia Medica, priority 2002, dated 2005):

How the values were obtained:
[1] = tested on: carrageenan-induced foot pad edema; experiment: Rat carrageenan-induced foot pad edema assay; format: in vivo; conditions: 10 mg/kg oral
Protocol: Male Sprgue-Dawley rats (190-220 g ) were fasted with free access to water at least 16 h prior experiments. The rats were dosed orally with a 1 ml suspension of test compound in vehicle (0.5% methyl cellulose and 0.025% Tween-20) or with vehicle alone. One hour later a subplantar injection of 0.1 ml of 1% solution of carageenan in 0.9% strile saline was administered to the right hind foot pad. Paw volume was measured with a displacement plethysmometer 2, 3, and 4 h after carrageenan injection.

COX-2 = target: T1, COX-2 (Mus musculus, UniProt Q05769); experiment: COX-2 assay: PGE2 release (RIA) from LPS-stimulated mouse peritoneal macrophages; format: cell-based, mice; conditions: LPS 1 mg/L 9 h, PGE2 by RIA
T1 construct: endogenous in cells; host or cells: thioglycollate-elicited peritoneal macrophages of male C57BL-6J mice, stimulated with LPS
T1 sequence (Q05769 18-604): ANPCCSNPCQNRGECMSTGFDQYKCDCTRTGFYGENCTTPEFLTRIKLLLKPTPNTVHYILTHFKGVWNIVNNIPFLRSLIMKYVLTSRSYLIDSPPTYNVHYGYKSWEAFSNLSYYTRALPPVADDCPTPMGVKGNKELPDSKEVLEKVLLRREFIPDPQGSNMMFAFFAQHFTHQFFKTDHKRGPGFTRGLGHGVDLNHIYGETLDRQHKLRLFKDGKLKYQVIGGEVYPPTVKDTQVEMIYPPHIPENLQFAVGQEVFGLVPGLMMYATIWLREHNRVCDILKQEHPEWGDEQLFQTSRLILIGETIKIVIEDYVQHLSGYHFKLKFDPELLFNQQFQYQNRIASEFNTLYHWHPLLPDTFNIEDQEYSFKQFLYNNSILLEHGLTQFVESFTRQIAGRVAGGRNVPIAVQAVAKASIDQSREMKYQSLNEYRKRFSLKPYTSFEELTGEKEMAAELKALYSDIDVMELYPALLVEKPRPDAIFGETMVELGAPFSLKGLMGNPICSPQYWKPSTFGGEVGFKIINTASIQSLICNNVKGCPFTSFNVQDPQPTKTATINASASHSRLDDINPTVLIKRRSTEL
Protocol: Cell culture: Adherent macrophages were harvested from the peritoneal cells of male mice (C57BL-6J, Level 2, from Experiment Animal Center, Academy of Military Medical Science) 3 d after the injection (ip) of brewer thioglycollate medium (5 mL/100 g body weight). […] Cell viability was examined by trypan blue dye exclusion. All incubation procedures were performed with 5% CO2 in humidified air at 37° C.
COX-2 assay: Macrophages were incubated with test compound at different concentrations or solvent (Me2SO) for 1 h and were stimulated with LPS 1 mg/L for 9 h. The amount of PGE2 in supernatants was measured by RIA. The inhibitory ratio was calculated using the same Formula as in COX-1 assay section. Cs, Ct, Cc refer to PGE2 concentration in supernatants of LPS, test compound, and control groups, respectively.
Statistical analysis: Data were expressed as the mean±SD of more than three independent experiments. Dose-inhibitory effect curves were fit through “uphill dose response curves, variable slope” using Prism, GraphPad (version 3.00): [formula]

SMILES | melting point [°C] | edema (paw volume increase) ([1]; 2 h after carrageenan) [%] | edema (paw volume increase) ([1]; 3 h after carrageenan) [%] | inhibitory percentage of edema ([1]; 3 h after carrageenan) [%] | edema (paw volume increase) ([1]; 4 h after carrageenan) [%] | inhibitory percentage of edema ([1]; 4 h after carrageenan) [%] | IC50 (COX-2) [nM] | inhibitory percentage of edema ([1]; 2 h after carrageenan) [%]
Cc1ccc(-c2c(-c3ccc(S(C)(=O)=O)cc3)[nH]c3ccccc23)cc1 [Example 65, 2-(4-methylsulfonylphenyl)-3-(4-methylphenyl)indole] | 197 to 198 | 18.5 ± 8.1 | 35.8 ± 6.8 | 42.8 | 27.4 ± 7.1 | 47.2 | 0.0896 | –
Cc1ccc(-c2c(-c3ccc(S(C)(=O)=O)cc3)[nH]c3ccccc23)cc1C [Example 67, 2-(4-methylsulfonylphenyl)-3-(3,4-dimethylphenyl)indole] | 206 to 207 | 25.6 ± 13.4 | 43.9 ± 11 | 29.8 | 29.5 ± 12 | 43.1 | 0.166 | –
COc1ccc(-c2c(-c3ccc(S(C)(=O)=O)cc3)[nH]c3ccccc23)cc1 [Example 69, 2-(4-methylsulfonylphenyl)-3-(4-methoxyphenyl)indole] | 218.5 to 220.5 | 21.6 ± 12.4 | 43.4 ± 12.1 | 30.6 | 37.8 ± 10.7 | 27.1 | 0.022 | –
NS(=O)(=O)c1ccc(-c2[nH]c3ccccc3c2-c2ccc(F)cc2)cc1 [Example 72, 2-(4-aminosulfonylphenyl)-3-(4-Fluorophenyl)indole] | 228 to 230 | 32.8 ± 13.2 | 36.4 ± 16.9 | 40.5 | 35.4 ± 11.3 | 41.2 | 5.15 | –
NS(=O)(=O)c1ccc(-c2[nH]c3ccc(Cl)cc3c2-c2ccccc2)cc1 [Example 75, 2-(4-aminosulfonylphenyl)-3-phenyl-5-chloroindole] | 297 to 299 | 35.6 ± 25.5 | 44.1 ± 31.4 | 54.8 | 34 ± 13.6 | 57.8 | 0.143 | 50.1
CS(=O)(=O)c1ccc(-c2[nH]c3ccc(F)cc3c2-c2ccccc2)cc1 [Example 79, 2-(4-methylsulfonylphenyl)-3-phenyl-5-fluoroindole] | 243 to 245 | 41.8 ± 7.2 | 47.7 ± 15.8 | 51.5 | 31.6 ± 13.3 | 60.8 | 5 | 41.4
NS(=O)(=O)c1ccc(-c2[nH]c3ccc(F)cc3c2-c2ccccc2)cc1 [Example 80, 2-(4-aminosulfonylphenyl)-3-phenyl-5-fluoroindole] | 302 to 304 | 36.7 ± 7.4 | 46.6 ± 14 | 52.2 | 40.8 ± 17.6 | 49.4 | 2 | 48.6
Cc1ccc2[nH]c(-c3ccc(S(N)(=O)=O)cc3)c(-c3ccccc3)c2c1 [Example 84, 2-(4-aminosulfonylphenyl)-3-phenyl-5-methylindole] | 242 to 244 | 63.1 ± 18.1 | 65.6 ± 15.4 | 32.8 | 62.4 ± 15.7 | 22.6 | 0.0171 | 40.5
CS(=O)(=O)c1ccc(-c2c(-c3ccccc3)[nH]c3ccc(Cl)cc23)cc1 [Example 87, 2-phenyl-3-(4-methylsulfonylphenyl)-5-chloroindole] | 273 to 275 | 45.4 ± 9.7 | 46.9 ± 13.6 | 23.4 | 43.4 ± 13.4 | 27.9 | 0.27 | –
CS(=O)(=O)c1ccc(-c2c(-c3ccc(Cl)cc3)[nH]c3ccc(Cl)cc23)cc1 [Example 89, 2-(4-chlorophenyl)-3-(4-methylsulfonylphenyl)-5-chloroindole] | 269 to 271 | 58.6 ± 15.8 | 66.5 ± 13.4 | 46.1 | 58.4 ± 13.8 | 29.9 | 354 | –
COc1ccc(-c2[nH]c3ccc(Cl)cc3c2-c2ccc(S(C)(=O)=O)cc2)cc1 [Example 90, 2-(4-methoxyphenyl)-3-(4-methylsulfonylphenyl)-5-chloroindole] | 246 to 248 | 44.2 ± 11.9 | 46.5 ± 5.7 | 52.4 | 40.8 ± 5.3 | 49.6 | 2.81 | 38.1
CS(=O)(=O)c1ccc(-c2c(-c3ccccc3F)[nH]c3ccc(Cl)cc23)cc1 [Example 92, 2-(2-fluorophenyl)-3-(4-methylsulfonylphenyl)-5-chloroindole] | 246 to 248 | 31.3 ± 17 | 44.6 ± 13.7 | 54.3 | 35.4 ± 18.8 | 56.1 | 1.76 | 56.2
CC(=O)Oc1ccccc1-c1[nH]c2ccc(Cl)cc2c1-c1ccc(S(C)(=O)=O)cc1 [Example 93, 2-(2-acetyloxyphenyl)-3-(4-methylsulfonylphenyl)-5-chloroindole] | 238 to 240 | 49.5 ± 8.2 | 54.4 ± 8.9 | 44.3 | 53.6 ± 11.4 | 33.5 | 6 | 30.7
CC(=O)Oc1ccc(-c2[nH]c3ccc(Cl)cc3c2-c2ccc(S(C)(=O)=O)cc2)cc1 [Example 94, 2-(4-acetyloxyphenyl)-3-(4-methylsulfonylphenyl)-5-chloroindole] | 248 to 250 | 58.8 ± 11.4 | 62.1 ± 7.1 | 36.3 | 56.4 ± 11.7 | 30.0 | 7.16 | 17.6
CS(=O)(=O)c1ccc(-c2c(-c3ccccc3)[nH]c3ccccc23)cc1 [Example 100, 2-phenyl-3-(4-methylsulfonylphenyl)indole] | 239 to 241 | 42.8 ± 15.1 | 54.4 ± 7.9 | 44.3 | 43.5 ± 8.9 | 46.1 | 0.216 | 40.1
NS(=O)(=O)c1ccc(-c2c(-c3ccccc3)[nH]c3ccccc23)cc1 [Example 101, 2-phenyl-3-(4-aminosulfonylphenyl)indole] | 223 to 225 | 36.6 ± 8.9 | 39.1 ± 15.4 | 36.1 | 33.6 ± 16.5 | 44.2 | 2.55 | –
